Laboratory results as given in ChEMBL document CHEMBL3046521, “Synthesis and antitumor activity of (4-hydroxyphenyl)[5-substituted alkyl/aryl)-2-thioxo-1,3,4-thiadiazol-3-yl]methanone and [(3,4-disubstituted)-1,3-thiazol-2ylidene]-4-hydroxybenzohydrazide” (2011).

Key:
Assay type in all cases: functional
K562 = assay: Cytotoxicity against Homo sapiens (human) K562 cells after 48 hr by sulforhodamine B assay; details: K562, 48 h
[1] = Cytotoxicity against Homo sapiens (human) […] cells after 48 hr by sulforhodamine B assay
Hs-578T = assay: Cytotoxicity against Homo sapiens (human) Hs 578T cells after 48 hr by sulforhodamine B assay
SK-MEL-2 = assay: Cytotoxicity against Homo sapiens (human) SK-MEL-2 cells after 48 hr by sulforhodamine B assay; details: SK-MEL-2, 48 h
Malme-3M = assay: Cytotoxicity against Homo sapiens (human) MALME-3M cells after 48 hr by sulforhodamine B assay
CAKI-1 = assay: Cytotoxicity against Homo sapiens (human) Caki1 cells after 48 hr by sulforhodamine B assay; details: CAKI-1, 48 h
PC-3 = assay: Cytotoxicity against Homo sapiens (human) PC3 cells after 48 hr by sulforhodamine B assay; details: PC-3, 48 h
OVCAR-8 = assay: Cytotoxicity against Homo sapiens (human) OVCAR8 cells after 48 hr by sulforhodamine B assay; details: OVCAR-8, 48 h
DU-145 = assay: Cytotoxicity against Homo sapiens (human) DU145 cells after 48 hr by sulforhodamine B assay; details: DU-145, 48 h
KM12 = assay: Cytotoxicity against Homo sapiens (human) KM12 cells after 48 hr by sulforhodamine B assay; details: KM12, 48 h
HCT-15 = assay: Cytotoxicity against Homo sapiens (human) HCT15 cells after 48 hr by sulforhodamine B assay; details: HCT-15, 48 h
COLO 205 = assay: Cytotoxicity against Homo sapiens (human) COLO205 cells after 48 hr by sulforhodamine B assay; details: COLO 205, 48 h
SR = assay: Cytotoxicity against Homo sapiens (human) SR cells after 48 hr by sulforhodamine B assay
SF-539 = assay: Cytotoxicity against Homo sapiens (human) SF539 cells after 48 hr by sulforhodamine B assay; details: SF-539, 48 h
HOP-62 = assay: Cytotoxicity against Homo sapiens (human) HOP62 cells after 48 hr by sulforhodamine B assay; details: HOP-62, 48 h
UO-31 = assay: Cytotoxicity against Homo sapiens (human) UO31 cells after 48 hr by sulforhodamine B assay; details: UO-31, 48 h
SNB-19 = assay: Cytotoxicity against Homo sapiens (human) SNB19 cells after 48 hr by sulforhodamine B assay; details: SNB-19, 48 h
OVCAR-4 = assay: Cytotoxicity against Homo sapiens (human) OVCAR4 cells after 48 hr by sulforhodamine B assay; details: OVCAR-4, 48 h
M14 = assay: Cytotoxicity against Homo sapiens (human) M14 cells after 48 hr by sulforhodamine B assay; details: M14, 48 h
HCC 2998 = assay: Cytotoxicity against Homo sapiens (human) HCC2998 cells after 48 hr by sulforhodamine B assay; details: HCC 2998, 48 h
HL-60(TB) = assay: Cytotoxicity against Homo sapiens (human) HL-60(TB) cells after 48 hr by sulforhodamine B assay; details: HL-60, 48 h
SNB-75 = assay: Cytotoxicity against Homo sapiens (human) SNB75 cells after 48 hr by sulforhodamine B assay; details: SNB-75, 48 h
U-251 = assay: Cytotoxicity against Homo sapiens (human) U251 cells after 48 hr by sulforhodamine B assay; details: U-251, 48 h
EKVX = assay: Cytotoxicity against Homo sapiens (human) EKVX cells after 48 hr by sulforhodamine B assay
SK-OV-3 = assay: Cytotoxicity against Homo sapiens (human) SKOV3 cells after 48 hr by sulforhodamine B assay; details: SK-OV-3, 48 h
SK-MEL-28 = assay: Cytotoxicity against Homo sapiens (human) SK-MEL-28 cells after 48 hr by sulforhodamine B assay; details: SK-MEL-28, 48 h
NCI-H226 = assay: Cytotoxicity against Homo sapiens (human) NCI-H226 cells after 48 hr by sulforhodamine B assay; details: NCI-H226, 48 h
NCI-H322M = assay: Cytotoxicity against Homo sapiens (human) NCI-H322M cells after 48 hr by sulforhodamine B assay
SF-268 = assay: Cytotoxicity against Homo sapiens (human) SF268 cells after 48 hr by sulforhodamine B assay; details: SF-268, 48 h
UACC-257 = assay: Cytotoxicity against Homo sapiens (human) UACC257 cells after 48 hr by sulforhodamine B assay; details: UACC-257, 48 h
IGROV-1 = assay: Cytotoxicity against Homo sapiens (human) IGROV1 cells after 48 hr by sulforhodamine B assay; details: IGROV-1, 48 h

COc1ccc(-c2cs/c(=N\NC(=O)c3ccc(O)cc3)n2-c2ccc(OC)cc2OC)cc1
GI50 (K562): 2.19 µM | LC50 (K562): > 100 µM | TGI (K562; read-out: pTGI (converted)): > 100 µM | GI50 [1]: 3.8 µM | LC50 [1]: > 100 µM | TGI ([1]; read-out: pTGI (converted)): > 100 µM | GI50 (Hs-578T): 6.92 µM | LC50 (Hs-578T): > 100 µM | TGI (Hs-578T; read-out: pTGI (converted)): 53.7 µM | GI50 (SK-MEL-2): 4.9 µM | LC50 (SK-MEL-2): > 100 µM | TGI (SK-MEL-2; read-out: pTGI (converted)): 72.4 µM | GI50 (Malme-3M): 5.37 µM | LC50 (Malme-3M): > 100 µM | TGI (Malme-3M; read-out: pTGI (converted)): 64.6 µM | GI50 (CAKI-1): 3.31 µM | LC50 (CAKI-1): > 100 µM | TGI (CAKI-1; read-out: pTGI (converted)): 52.5 µM | GI50 (PC-3): 3.39 µM | LC50 (PC-3): > 100 µM | TGI (PC-3; read-out: pTGI (converted)): > 100 µM | GI50 (OVCAR-8): 10.2 µM | LC50 (OVCAR-8): > 100 µM | TGI (OVCAR-8; read-out: pTGI (converted)): > 100 µM | GI50 (DU-145): 8.13 µM | LC50 (DU-145): > 100 µM | TGI (DU-145; read-out: pTGI (converted)): 40.7 µM | GI50 (KM12): 2.63 µM | LC50 (KM12): 87.1 µM | TGI (KM12; read-out: pTGI (converted)): 8.51 µM | GI50 (HCT-15): 3.55 µM | LC50 (concentration killing 50% of cells) (HCT-15): > 100 µM | TGI (HCT-15; read-out: pTGI (converted)): > 100 µM | GI50 (COLO 205): 4.47 µM | LC50 (COLO 205): 79.4 µM | TGI (COLO 205; read-out: pTGI (converted)): 20.9 µM | GI50 (SR): 2 µM | LC50 (SR): > 100 µM | TGI (SR; read-out: pTGI): > 100 µM | GI50 (SF-539): 5.13 µM | LC50 (SF-539): 63.1 µM | TGI (SF-539; read-out: pTGI (converted)): 20.4 µM | GI50 (HOP-62): 2.95 µM | LC50 (HOP-62): 49 µM | TGI (HOP-62; read-out: pTGI (converted)): 7.59 µM | GI50 (UO-31): 4.68 µM | LC50 (UO-31): > 100 µM | TGI (UO-31; read-out: pTGI): > 100 µM | GI50 (SNB-19): 10.7 µM | LC50 (SNB-19): > 100 µM | TGI (SNB-19; read-out: pTGI (converted)): > 100 µM | GI50 (OVCAR-4): 10.2 µM | LC50 (OVCAR-4): > 100 µM | TGI (OVCAR-4; read-out: pTGI (converted)): > 100 µM | GI50 (M14): 5.5 µM | LC50 (M14): > 100 µM | TGI (M14; read-out: pTGI (converted)): 27.5 µM | GI50 (HCC 2998): 1.95 µM | LC50 (HCC 2998): 53.7 µM | TGI (HCC 2998; read-out: pTGI (converted)): 5.25 µM | GI50 (HL-60(TB)): 3.02 µM | CC50 (HL-60(TB); read-out: pLC50 (the source's name) (converted)): > 100 µM | TGI (HL-60(TB); read-out: pTGI (converted)): 38 µM | GI50 (SNB-75): 22.9 µM | LC50 (SNB-75): > 100 µM | TGI (SNB-75; read-out: pTGI (converted)): > 100 µM | GI50 (U-251): 4.47 µM | LC50 (U-251): 93.3 µM | TGI (U-251; read-out: pTGI (converted)): 89.1 µM | GI50 (EKVX): 6.92 µM | LC50 (EKVX): > 100 µM | TGI (EKVX; read-out: pTGI (converted)): > 100 µM | GI50 (SK-OV-3): 15.1 µM | LC50 (SK-OV-3): > 100 µM | TGI (SK-OV-3; read-out: pTGI (converted)): 100 µM | GI50 (SK-MEL-28): 7.24 µM | LC50 (concentration killing 50% of cells) (SK-MEL-28): > 100 µM | TGI (SK-MEL-28; read-out: pTGI (converted)): 53.7 µM | GI50 (NCI-H226): 4.27 µM | LC50 (NCI-H226): > 100 µM | TGI (NCI-H226; read-out: pTGI (converted)): > 100 µM | GI50 (NCI-H322M): 22.9 µM | LC50 (NCI-H322M): > 100 µM | TGI (NCI-H322M; read-out: pTGI (converted)): > 100 µM | GI50 (SF-268): 5.75 µM | LC50 (SF-268): > 100 µM | TGI (SF-268; read-out: pTGI (converted)): 60.3 µM | GI50 (UACC-257): 15.1 µM | LC50 (UACC-257): > 100 µM | TGI (UACC-257; read-out: pTGI (converted)): > 100 µM | GI50 (IGROV-1): 7.94 µM | LC50 (IGROV-1): > 100 µM | TGI (IGROV-1; read-out: pTGI (converted)): > 100 µM
